We go through 1 compound from publication PMC8426359, “Use of a small molecule integrin activator as a systemically administered vaccine adjuvant in controlling Chagas disease” (NPJ Vaccines, 2021).

This experiment has as its target T1, integrin α4β1 (very late activation antigen-4, VLA-4) (Homo sapiens, UniProt P05556+P13612).
T1 construct: gene ITGA4; endogenous integrin on Jurkat cells; with integrin β1 (ITGB1)
Put plainly: static adhesion of Jurkat cells to VCAM-1; blocked by anti-α[…] or anti-β[…] mAb. It counts as cell-based.

T1 sequence (P13612 34-1032): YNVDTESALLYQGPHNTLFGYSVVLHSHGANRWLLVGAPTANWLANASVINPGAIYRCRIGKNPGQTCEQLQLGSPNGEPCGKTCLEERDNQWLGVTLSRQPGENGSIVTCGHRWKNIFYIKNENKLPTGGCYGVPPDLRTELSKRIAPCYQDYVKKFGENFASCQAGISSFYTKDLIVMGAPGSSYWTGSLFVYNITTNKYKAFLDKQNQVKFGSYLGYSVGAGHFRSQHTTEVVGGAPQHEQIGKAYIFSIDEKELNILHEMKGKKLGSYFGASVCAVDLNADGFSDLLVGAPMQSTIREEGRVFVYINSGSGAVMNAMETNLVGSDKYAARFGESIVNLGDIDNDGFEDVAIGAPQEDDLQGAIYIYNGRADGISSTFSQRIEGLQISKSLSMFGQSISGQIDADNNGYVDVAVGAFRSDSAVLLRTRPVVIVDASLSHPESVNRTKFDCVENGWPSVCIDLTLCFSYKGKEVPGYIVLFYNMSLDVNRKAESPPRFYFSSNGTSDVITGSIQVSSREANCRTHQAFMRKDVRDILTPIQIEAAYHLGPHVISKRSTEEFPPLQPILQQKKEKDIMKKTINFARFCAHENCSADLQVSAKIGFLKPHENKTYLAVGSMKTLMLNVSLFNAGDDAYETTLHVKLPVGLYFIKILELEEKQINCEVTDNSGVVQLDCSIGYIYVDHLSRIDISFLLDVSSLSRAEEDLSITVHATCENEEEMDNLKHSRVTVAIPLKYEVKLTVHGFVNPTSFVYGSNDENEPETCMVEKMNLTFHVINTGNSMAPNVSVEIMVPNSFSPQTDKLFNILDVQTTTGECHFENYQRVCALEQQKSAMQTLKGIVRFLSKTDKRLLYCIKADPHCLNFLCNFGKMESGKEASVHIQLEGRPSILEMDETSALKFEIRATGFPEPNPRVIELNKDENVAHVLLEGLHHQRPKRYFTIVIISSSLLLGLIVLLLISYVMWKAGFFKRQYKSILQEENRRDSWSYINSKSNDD
T1 sequence (P05556 21-798): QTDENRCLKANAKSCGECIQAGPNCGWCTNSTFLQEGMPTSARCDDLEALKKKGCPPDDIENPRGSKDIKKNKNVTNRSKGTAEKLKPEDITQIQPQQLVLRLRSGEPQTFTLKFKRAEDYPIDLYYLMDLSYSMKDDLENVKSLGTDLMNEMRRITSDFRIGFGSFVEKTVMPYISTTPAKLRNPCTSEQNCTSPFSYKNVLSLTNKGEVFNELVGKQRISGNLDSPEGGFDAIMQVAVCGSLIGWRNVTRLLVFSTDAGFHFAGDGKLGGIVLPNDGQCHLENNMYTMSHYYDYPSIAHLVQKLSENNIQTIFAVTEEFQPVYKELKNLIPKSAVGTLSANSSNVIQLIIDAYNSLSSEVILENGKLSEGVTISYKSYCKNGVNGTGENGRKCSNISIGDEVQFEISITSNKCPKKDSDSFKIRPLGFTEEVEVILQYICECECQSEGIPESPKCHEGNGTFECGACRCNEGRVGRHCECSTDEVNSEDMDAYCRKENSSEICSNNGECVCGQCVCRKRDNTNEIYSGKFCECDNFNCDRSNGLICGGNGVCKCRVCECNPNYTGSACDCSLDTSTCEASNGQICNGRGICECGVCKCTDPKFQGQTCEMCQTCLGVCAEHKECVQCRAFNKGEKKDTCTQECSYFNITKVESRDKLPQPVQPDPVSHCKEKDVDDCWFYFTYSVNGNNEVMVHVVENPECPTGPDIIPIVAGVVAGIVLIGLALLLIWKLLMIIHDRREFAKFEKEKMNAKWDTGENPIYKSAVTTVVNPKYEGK

For the compound `O=C(OCCOCCOCCOC(=O)N(Cc1cccs1)Cc1cccs1)N(Cc1cccs1)Cc1cccs1` [7HP349], the midpoint of the response, the EC50, lay at 2000 nM.
